Measured values from PubChem BioAssay (NCI).
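All cell lines were grown in 96-well plates and treated with compound for 48 hours. TGI is the concentration that stops growth completely.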

How the values were obtained:
Assay in all cases: DTP human tumour cell line panel, 48 h
ACHN renal = tested on: ACHN renal
COLO 205 colon = tested on: COLO 205 colon
HCC-2998 colon = tested on: HCC-2998 colon
HL-60(TB) leukemia = tested on: HL-60(TB) leukemia
HT29 colon = tested on: HT29 colon
IGROV1 ovarian = tested on: IGROV1 ovarian
KM12 colon = tested on: KM12 colon
MALME-3M melanoma = tested on: MALME-3M melanoma
NCI-H226 lung = tested on: NCI-H226 lung
NCI-H460 lung = tested on: NCI-H460 lung
NCI-H522 lung = tested on: NCI-H522 lung
OVCAR-4 ovarian = tested on: OVCAR-4 ovarian
RXF 393 renal = tested on: RXF 393 renal
SF-268 CNS = tested on: SF-268 CNS
SK-MEL-2 melanoma = tested on: SK-MEL-2 melanoma
SNB-75 CNS = tested on: SNB-75 CNS
SW-620 colon = tested on: SW-620 colon
U251 CNS = tested on: U251 CNS
TK-10 renal = tested on: TK-10 renal

SMILES | TGI (ACHN renal) [µM] | TGI (COLO 205 colon) [µM] | TGI (HCC-2998 colon) [µM] | TGI (HL-60(TB) leukemia) [µM] | TGI (HT29 colon) [µM] | TGI (IGROV1 ovarian) [µM] | TGI (KM12 colon) [µM] | TGI (MALME-3M melanoma) [µM] | TGI (NCI-H226 lung) [µM] | TGI (NCI-H460 lung) [µM] | TGI (NCI-H522 lung) [µM] | TGI (OVCAR-4 ovarian) [µM] | TGI (RXF 393 renal) [µM] | TGI (SF-268 CNS) [µM] | TGI (SK-MEL-2 melanoma) [µM] | TGI (SNB-75 CNS) [µM] | TGI (SW-620 colon) [µM] | TGI (U251 CNS) [µM] | TGI (TK-10 renal) [µM]
ClCCN1CCOC1=Nc1ccc2c(c1)CCCC2 | 28.1 | 25 | 30.1 | 17.1 | 33.1 | 24.8 | 32 | 20.8 | 30.9 | 61.8 | 54.9 | 41.4 | 22.6 | 47.7 | 38.1 | 28.7 | 61.2 | 28.6 | –
N/C(=N\N=C\c1c[nH]c2cc(C(F)(F)F)ccc2c1=O)NO | > 10 | > 10 | > 10 | > 10 | > 10 | > 10 | > 10 | > 10 | > 10 | > 10 | > 10 | > 10 | > 10 | > 10 | > 10 | 9.03 | > 10 | > 10 | > 10
CC(=O)Nc1ccc(CNc2cc(=O)n(C)c(=O)[nH]2)cc1 | > 100 | > 100 | > 100 | > 100 | > 100 | > 100 | > 100 | > 100 | > 100 | > 100 | > 100 | > 100 | > 100 | > 100 | > 100 | > 100 | > 100 | > 100 | > 100
O=C(O)c1ccc(-c2nc3ccc(Cl)cc3[nH]2)cc1 | – | > 100 | > 100 | > 100 | > 100 | > 100 | > 100 | – | > 100 | – | > 100 | – | > 100 | – | > 100 | > 100 | > 100 | > 100 | –
C1=Nc2sc3c(c2C2=NCCN12)CCCC3 | 30.8 | 53.2 | 24.3 | 36.5 | 32.8 | 30.8 | 31.3 | 32.9 | 33.2 | 32.4 | 30.9 | 42.1 | 44.9 | 52.1 | 20.7 | 34.9 | 43.8 | 41.7 | 30.7
CCC(=O)N1NC(=O)C(CC)(CC)C1=O | > 100 | > 100 | > 100 | > 100 | > 100 | > 100 | > 100 | – | > 100 | > 100 | > 100 | > 100 | > 100 | > 100 | > 100 | > 100 | > 100 | > 100 | > 100
COC(=O)C1C(OC(=O)C(Cl)(c2ccccc2)c2ccccc2)CC2CCC1N2C (configuration not stated) | > 100 | > 100 | > 100 | > 100 | > 100 | > 100 | > 100 | > 100 | > 100 | – | > 100 | – | > 100 | > 100 | – | > 100 | > 100 | > 100 | > 100
Cc1cccc2c(N)c3cccc(C(=O)NCC[N+](C)(C)Cc4sccc4[N+](=O)[O-])c3nc12 | 18.1 | 79.3 | 20.8 | > 100 | 18.6 | > 100 | 28.2 | 27.7 | 32 | – | 29.1 | 35.5 | 33.4 | > 100 | > 100 | > 100 | > 100 | > 100 | > 100
O=C1C(Cl)=C(N2C(=O)CCCC2=O)C(=O)c2ccccc21 | 21 | 19.1 | 31.4 | 4.42 | 29.2 | 30.1 | > 100 | – | > 100 | 27.8 | 4.53 | – | 31.9 | > 100 | 49 | > 100 | 48.3 | 66.1 | 31.3
CCOC(=O)C(NCc1ccc2c(c1)OCO2)(NC(=O)c1ccccc1)C(F)(F)F (configuration not stated) | > 100 | > 100 | > 100 | 82 | > 100 | > 100 | > 100 | > 100 | > 100 | – | > 100 | > 100 | > 100 | > 100 | > 100 | > 100 | > 100 | > 100 | > 100
CN(C)c1nc2n(CCO)c(-c3ccccc3)c(-c3ccccc3)nc-2c(=O)n1 | > 100 | > 100 | > 100 | – | > 100 | > 100 | > 100 | > 100 | > 100 | > 100 | > 100 | > 100 | > 100 | > 100 | > 100 | > 100 | > 100 | > 100 | > 100
COCc1cc2c(cc1/C(=C/[N+](=O)[O-])CS(=O)(=O)c1ccccc1)OCO2 | > 100 | > 100 | > 100 | > 100 | > 100 | > 100 | – | – | > 100 | > 100 | > 100 | – | > 100 | > 100 | – | > 100 | > 100 | > 100 | > 100
CCCCOC(=O)NC(Nc1ccc(S(=O)(=O)Nc2ccc(OC)nn2)cc1)(C(F)(F)F)C(F)(F)F | > 100 | > 100 | > 100 | > 100 | > 100 | > 100 | > 100 | > 100 | > 100 | > 100 | – | > 100 | > 100 | > 100 | – | – | > 100 | > 100 | > 100
CCn1c(-c2ccc(F)cc2)nc2c1C(=O)c1ccccc1C2=O | > 100 | > 100 | > 100 | > 100 | > 100 | > 100 | > 100 | > 100 | > 100 | > 100 | > 100 | > 100 | > 100 | > 100 | – | > 100 | > 100 | > 100 | > 100
COc1ccc(/C=C2\N=C3Sc4c(nc[nH]c4=O)N3C2=O)cc1 | > 100 | > 100 | > 100 | > 100 | > 100 | > 100 | > 100 | > 100 | > 100 | – | > 100 | > 100 | > 100 | > 100 | > 100 | > 100 | > 100 | > 100 | > 100
C=C1CCCCCCCCCCC12SCCC2CCCCSC (configuration not stated) | 38.9 | 33.6 | 39.2 | 44.7 | 61.4 | 49.9 | – | 36.2 | 36.2 | > 100 | 36.8 | > 100 | 50.4 | 67.4 | 37.7 | – | 68.9 | 33.8 | –
CCN(CC)CCCNc1nc(=O)[nH]c(C)c1C(=O)Nc1c2ccccc2nc2ccccc12 | 57.4 | 23.5 | 80.6 | 60.9 | 26.2 | 72.6 | 26.5 | 45.1 | 93.8 | – | 21.3 | 86.3 | 97 | – | > 100 | 55.5 | > 100 | > 100 | > 100
CCOC(=O)C(C)(C(=O)OCC)/C(Cl)=C\Cl | > 100 | > 100 | 0.988 | > 100 | > 100 | > 100 | > 100 | > 100 | > 100 | > 100 | > 100 | > 100 | > 100 | > 100 | – | > 100 | > 100 | – | > 100
CN1C(=O)N/C(=C\c2ccc(S(=O)(=O)N/N=C\C(O)C(O)C(O)CO)cc2)C1=O (configuration not stated) | > 100 | > 100 | > 100 | > 100 | > 100 | > 100 | > 100 | > 100 | – | > 100 | – | > 100 | > 100 | > 100 | > 100 | > 100 | > 100 | > 100 | > 100
O=C1/C(=C/c2ccc(Cl)cc2)N=C(c2ccccc2)N1c1nc2ccccc2s1 | > 100 | – | > 100 | 18.4 | > 100 | > 100 | > 100 | – | > 100 | > 100 | 75.1 | > 100 | > 100 | > 100 | 88.2 | > 100 | > 100 | > 100 | > 100
CC(=O)OC(C)c1cc2c(s1)C(=O)c1scc(C(C)OC(C)=O)c1C2=O (configuration not stated) | 0.628 | 1 | 1.23 | > 100 | 3.53 | 2.04 | 0.359 | 0.288 | 4.04 | 0.344 | 0.571 | 0.583 | 1.31 | 0.504 | – | 0.332 | – | 1.66 | 1.83
CCOC(=O)C1=C(C)OC(=O)[C@@]2(OC)C=C(Cl)[C@@]12C | > 100 | > 100 | > 100 | 91 | > 100 | > 100 | > 100 | > 100 | > 100 | > 100 | > 100 | > 100 | > 100 | > 100 | – | > 100 | > 100 | > 100 | > 100
NCCCCN(CCCN)C(=O)c1ccccc1 | > 100 | > 100 | > 100 | > 100 | > 100 | > 100 | > 100 | – | > 100 | > 100 | > 100 | > 100 | > 100 | > 100 | > 100 | > 100 | > 100 | > 100 | > 100
O=C1C(C(c2ccccc2)N2CCOCC2)=C(O)C(c2ccccc2)N1c1ccccc1 (configuration not stated) | > 10 | > 10 | > 10 | > 10 | > 10 | > 10 | > 10 | > 10 | > 10 | > 10 | > 10 | – | > 10 | > 10 | > 10 | > 10 | > 10 | > 10 | > 10
N#Cc1c(NCCc2ccc(F)cc2)c2ccccc2n2c1nc1ccccc12 | 35.2 | > 100 | > 100 | > 100 | 91.5 | 39.9 | > 100 | – | 55.4 | > 100 | – | 9.16 | 65.7 | 96.5 | > 100 | 30.8 | > 100 | 61 | 60.8
CC(=O)OC[C@@H]1[C@H]2CC[C@]3(C)[C@@H](OC(C)=O)CC[C@H]3[C@@H]2CC[C@H]1C1(C)SCCS1 | > 25 | > 25 | > 25 | > 25 | > 25 | > 25 | > 25 | > 25 | > 25 | > 25 | > 25 | > 25 | > 25 | > 25 | – | > 25 | > 25 | > 25 | > 25
CCOC(=O)N(c1ccccc1)c1cc(=O)n2ccccc2n1 | > 100 | > 100 | > 100 | > 100 | > 100 | > 100 | > 100 | > 100 | > 100 | > 100 | – | > 100 | > 100 | > 100 | – | > 100 | > 100 | > 100 | > 100
